The record followed here is patent publication US8530517B2, “Retinoid derivatives endowed with cytotoxic and/or antiangiogenic properties” (Sigma-Tau Industrie Farmaceutiche Riunite S.p.A., priority 2008, dated 2013).

For data set [1], the system named is NCI-H460 non-small cell lung carcinoma cells. The experiment in a line: Cytotoxicity on NCI-H460 tumor cell line (sulphorodamine B test). To be noted: further 48 h in drug-free medium, read-out: NCI-H460 IC50 μM ± SD. Type of data set: cell-based. On the procedure:
To evaluate the effect of the compounds on survival cells, the sulphorodamine B test was used. To test the effects of the compounds on cell growth, NCI-H460 non-small cell lung carcinoma cells were used. Tumor cells were grown in RPMI 1640 containing 10% fetal bovine serum (GIBCO).
Tumor cells were seeded in 96-well tissue culture plates at approximately 10% confluence and were allowed to attach and recover for at least 24 h. Varying concentrations of the drugs were then added to each well to calculate their IC50 value (the concentration which inhibits the 50% of cell survival). The plates were incubated at 37° C. for 24 h. At the end of the treatment, the plates were washed by remotion of the surnatant and addition of PBS. Medium culture (200 μL) was added again and the plates were incubated for further 48 h at 37° C. 200 μl PBS and 50 μl of cold 80% TCA were added. The plates were incubated on ice for at least 1 h. TCA was removed, the plates were washed 3 times for immersion in distilled-water and dried on paper and at 40° C. for 5 min. Then 200 μl of 0.4% sulphorodamine B in 1% acetic acid were added. The plates were incubated at room temperature for other 30 min. Sulphorodamine B was removed, the plates were washed for immersion in 1% acetic acid for 3 times, then they were dried on paper and at 40° C. for 5 min. Then 200 μl Tris 10 mM were added, the plates were kept under stirring for 20 min. The survival cell was determined as optical density by a Multiskan spectrofluorimeter at 540 nm. The amount of cells killed was calculated as the percentage decrease in sulphorodamine B binding compared with control cultures, the latter involving the use of (2E)-3-[3′-(1-adamantyl)-4′-hydroxy[1,1′-biphenyl]-4-yl]-2-propenoic acid (ST1926).
The IC50 values were calculated with the “ALLFIT” program.

In data set [2] the test system is human ovarian cancer cell line A2780. The experiment in a line: Cytotoxicity on A2780 tumor cell line. The settings on record: 5 Mm as printed in head (text: 5 μM), preliminary results; for inhibition at 5 µM: Homo sapiens, A2780. Type of data set: cell-based. On the procedure: The antiproliferative effect of the compounds is reported as percentages of inhibition of cellular proliferation measured at 5 μM as reported in table 3.

The next data set concerns A431 tumour cells. The experiment in a line: In vivo study on A431 epidermoid carcinoma. To be noted: iv 10 mg/10 ml/kg, qdx3/wx2w, after two weeks of treatment, sc A431 in CD1 nude mice; p=0.036 versus vehicle. On the procedure: The tumour was generated by subcutaneous injection of A431 tumour cells (5×10^6/100 μl/mouse), in 0.1 ml medium Tc199 in the right flank of CD1 nude mice. 3 days after tumour injection, ST5589 was delivered iv at a dose of 10 mg/10 ml/kg according to the schedule qdx3/wx2w in a group of 9 mice.
To evaluate the antitumour activity of ST5589, tumour diameters were measured biweekly with a Vernier caliper and tumour volume was calculated according to the formula TV=d^2×D/2
where d and D are the shortest and longest diameters, respectively.
The efficacy of the drug was assessed as the tumour volume inhibition according to the formula reported underneath: […]

The nature of data set [3]: Chemical stability in solution at various pH. Type of data set: physicochemical. To be noted: after 24 h at pH 7.4. On the procedure:
The compounds were screened at various pH in order to test their relative chemical stability in solution. All of them resulted stable after incubation for 3 h at pH=1.2. Chemical stability was also investigated at pH=7.4 after 24 h incubation.

The mark [4] stands for this setting: Homo sapiens, NCI-H460, 24 h treatment.

The structures appear in SMILES notation. Where a name gives a salt, the structure may show the parent alone. Read-outs that look alike come from different tables or passages of the source. A value given as a limit tells only on which side of the number the result lay.

`O=C(O)/C=C/c1ccc(-c2ccc(OC(=O)NCC(=O)O)c(C34CC5CC(CC(C5)C3)C4)c2)cc1` [Example 7, (E)-3-(3′-adamantan-1-yl-4′-carboxymethylcarbamoyloxy-biphenyl-4-yl)-acrylic acid]: in data set [1] (setting [4]), the IC50 (as a rule, the concentration that gives 50% inhibition) is 3 ± 0.1 µM. Further, testing at 5 µM in data set [2] gave an inhibition of 26%. In the case of `N#CCOc1ccc(-c2ccc(/C=C/C(=O)O)cc2)cc1C12CC3CC(CC(C3)C1)C2` [Example 21, (E)-3-(3′-Adamantan-1-yl-4′-cyanomethoxybiphenyl-4-yl)-acrylic acid], the half-maximal inhibitory concentration (IC50) in data set [1] (setting [4]) worked out at 0.85 ± 0.06 µM. Turning to `CCCCCCCCCCCNC(=O)Oc1ccc(-c2ccc(/C=C/C(=O)O)cc2)cc1C12CC3CC(CC(C3)C1)C2` [Example 10, (E)-3-(3′-adamantan-1-yl-4′-undecyl-carbamoyloxy-biphenyl-4-yl)-acrylic acid], the IC50 in data set [1] (24 h treatment) turned out to be 1.39 ± 0.04 µM. The % Inhibition (as a rule, the relative decrease from the control value, in per cent) at 5 Mm on A2780 cell line in data set [2] stood at 90%. Turning to `O=C(O)/C=C/c1ccc(-c2ccc(OC(=O)C3CC3)c(C34CC5CC(CC(C5)C3)C4)c2)cc1` [Example 16, (E)-cyclopropanecarboxylic acid 3-adamantan-1-yl-4′-(2-carboxyvinyl)-biphenyl-4-yl ester], the half-inhibitory concentration (IC50) in data set [1] (24 h treatment) came out at 0.85 ± 0.03 µM. In addition, in data set [2], the “% Inhibition at 5 Mm on A2780 cell line” value is recorded as 93%. For `O=C(O)/C=C/c1ccc(-c2ccc(OC(=O)NCCN3CCOCC3)c(C34CC5CC(CC(C5)C3)C4)c2)cc1` [Example 9, (E)-3-[3′-adamantan-1-yl-4′-(2-morpholin-4-yl-ethyl-carbamoyloxy)-biphenyl-4-yl]-acrylic acid hydrochloride], the concentration for half-maximal inhibition (IC50) in data set [1] (setting [4]) stood at 0.92 ± 0.05 µM. In data set [2], at 5 µM the inhibition was 90%. In the case of `CCCCCCCCCCC(=O)Oc1ccc(-c2ccc(/C=C/C(=O)O)cc2)cc1C12CC3CC(CC(C3)C1)C2` [Example 3, undecanoic acid 3-adamantan-1-yl-4′-((E)-2-carboxy-vinyl)-biphenyl-4-yl ester], in data set [1] (setting [4]), the IC50 was determined as 1.54 ± 0.08 µM. Also, in data set [2], the inhibition (as a rule, the relative decrease from the control value, in per cent) at 5 µM is 94%. On to `O=C(O)/C=C/c1ccc(-c2ccc(OCN3C(=O)c4ccccc4C3=O)c(C34CC5CC(CC(C5)C3)C4)c2)cc1` [Example 17, (E)-3-[3′-Adamantan-1-yl-4′-(1,3-dioxo-1,3-dihydroisoindol-2-ylmethoxy)-biphenyl-4yl]-acrylic acid], for which the IC50 in data set [1] (setting [4]) turned out to be 8.4 ± 1.6 µM. For `O=C(O)/C=C/c1ccc(-c2ccc(OC(=O)COCCOCCOCC(=O)O)c(C34CC5CC(CC(C5)C3)C4)c2)cc1` [Example 2, (E)-3-(3′-adamantan-1-yl-4′-{2-[2-(2-carboxymethoxy-ethoxy)-ethoxy]-acetoxy}-biphenyl-4-yl)-acrylic acid], the IC50 in data set [1] (setting [4]) amounted to 0.17 ± 0.007 µM. Also, at 5 µM the inhibition in data set [2] was 93%. Consider `Cl.O=C(O)/C=C/c1ccc(-c2ccc(OC(=O)CCCN3CCOCC3)c(C34CC5CC(CC(C5)C3)C4)c2)cc1` [Example 4, 4-morpholin-4-yl-butyric acid 3-adamantan-1-yl-4′-((E)-2-carboxy-vinyl)-biphenyl-4-yl ester hydrochloride], for which, in data set [1] (setting [4]), the IC50 turned out to be 0.22 ± 0.009 µM. In addition, the “reduction in tumour volume (tumour volume inhibition)” value in the data set with A431 tumour cells worked out at 34%. In data set [2], the inhibition at 5 µM was found to be 94%. As for `O=C(O)/C=C/c1ccc(-c2ccc(OCCN3CCOCC3)c(C34CC5CC(CC(C5)C3)C4)c2)cc1` [Example 23, (E)-3-[3′-Adamantan-1-yl-4′-(2-morpholin-4-yl-ethoxy)biphenyl-4-yl]-acrylic acid], in data set [1] (setting [4]), the IC50 is more than 5 µM. As to `CCCOC(=O)OCOc1ccc(-c2ccc(/C=C/C(=O)O)cc2)cc1C12CC3CC(CC(C3)C1)C2` [Example 19], the IC50 in data set [1] (24 h treatment) is 0.32 ± 0.01 µM. `O=C(O)/C=C/c1ccc(-c2ccc(OC(=O)NC3CCN(C(=O)OCc4ccccc4)CC3)c(C34CC5CC(CC(C5)C3)C4)c2)cc1` [Example 13, 4-[3-adamantan-1-yl-4′-((E)-2-carboxy-vinyl)-biphenyl-4-yloxycarbonylamino]-piperidine-1-carboxylic acid benzyl ester]: in data set [1] (setting [4]), the IC50 turned out to be 5 µM. This molecule returned an inhibition at 5 µM in data set [2] of 71%. The matching figures for `CC(C)[C@H](N)C(=O)Oc1ccc(-c2ccc(/C=C/C(=O)O)cc2)cc1C12CC3CC(CC(C3)C1)C2` [Example 1, (S)-2-amino-3-methyl-butyric acid 3-adamantan-1-yl-4′-((E)-2-carboxy-vinyl)-biphenyl-4-yl ester hydrochloride]: 0.51 ± 0.003 µM and 93%.

For `CC(C)C[C@H](NC(=O)Oc1ccc(-c2ccc(/C=C/C(=O)O)cc2)cc1C12CC3CC(CC(C3)C1)C2)C(=O)NCC(=O)O` [Example 14, (E)-3-{3′-Adamantan-1-yl-4′-[(S)-1-(carboxymethyl-carbamoyl)-3-methyl-butylcarbamoyloxy]-biphenyl-4-yl}-acrylic acid], in data set [1] (setting [4]), the IC50 came to 3.5 ± 0.2 µM. On to `NCCCCNC(=O)Oc1ccc(-c2ccc(/C=C/C(=O)O)cc2)cc1C12CC3CC(CC(C3)C1)C2` [Example 8, (E)-3-[3′-adamantan-1-yl-4′-(4-amino-butylcarbamoyloxy)-biphenyl-4-yl]-acrylic acid hydrochloride], for which the IC50 in data set [1] (setting [4]) was 2.6 ± 0.08 µM. Also, in data set [2], the inhibition at 5 µM was 70%. As for `CN1CCN(CCCC(=O)Oc2ccc(-c3ccc(/C=C/C(=O)O)cc3)cc2C23CC4CC(CC(C4)C2)C3)CC1` [Example 5, 4-(4-methyl-piperazin-1-yl)-butyric acid 3-adamantan-1-yl-4′-((E)-2-carboxy-vinyl)-biphenyl-4-yl ester dihydrochloride], in data set [1] (setting [4]), the IC50 is 0.24 ± 0.01 µM. Moreover, the inhibition at 5 µM in data set [2] came out at 92%.

Turning to `COCCOCOc1ccc(-c2ccc(/C=C/C(=O)O)cc2)cc1C12CC3CC(CC(C3)C1)C2` [Example 15, (E)-3-[3′-Adamantan-1-yl-4′-(2-methoxyethoxymethoxy)-biphenyl-4-yl]acrylic acid], the IC50 in data set [1] (setting [4]) is 4.2 ± 0.04 µM. This molecule also displayed an inhibition at 5 µM in data set [2] of 78%. For the molecule `O=C(O)/C=C/c1ccc(-c2ccc(O)c(C34CC5CC(CC(C5)C3)C4)c2)cc1` [Control, (2E)-3-[3′-(1-adamantyl)-4′-hydroxy[1,1′-biphenyl]-4-yl]-2-propenoic acid, reference compound], the IC50 in data set [1] (setting [4]) was 0.13 µM. Regarding `CCCCCC=CC/C=C/CCCCCCCC(=O)Oc1ccc(-c2ccc(C=CC(=O)O)cc2)cc1C12CC3CC(CC(C3)C1)C2` [Example 18, (E)-Octadeca-9,12-dienoic acid 3-adamantan-1-yl-4′-(2-carboxyvinyl)-biphenyl-4-yl ester], in data set [1] (setting [4]), the 50% inhibitory concentration (IC50) amounted to 7.8 ± 0.7 µM. For the same molecule, in data set [2], 5 µM produced 55% inhibition.

On to `CC(C)NC(=O)Oc1ccc(-c2ccc(/C=C/C(=O)O)cc2)cc1C12CC3CC(CC(C3)C1)C2` [Example 12], for which, in data set [1] (24 h treatment), the IC50 came to 5 µM. Consider `NC1(C(=O)Oc2ccc(-c3ccc(/C=C/C(=O)O)cc3)cc2C23CC4CC(CC(C4)C2)C3)CC1.O=C(O)C(F)(F)F` [Example 20, (E)-1-[3-Adamantan-1-yl-4′-(2-carboxyvinyl)-biphenyl-4-yloxycarbonyl]-cyclopropyl-ammonium trifluoroacetate], for which the IC50 in data set [1] (setting [4]) is 0.1 ± 0.003 µM. Besides, at 5 µM the inhibition in data set [2] was 94%. In addition, the “amount of E-4-(3-(1-adamantyl)-4-hydroxyphenyl)cinnamic acid (hydrolysed parent compound)” value in data set [3] stood at 8%. With `CNCCNC(=O)Oc1ccc(-c2ccc(/C=C/C(=O)O)cc2)cc1C12CC3CC(CC(C3)C1)C2` [Example 6, (E)-3-[3′-adamantan-1-yl-4′-(2-methylamino-ethylcarbamoyloxy)-biphenyl-4-yl]-acrylic acid], in data set [1] (setting [4]), the IC50 came to 0.24 ± 0.008 µM. The same molecule displayed an inhibition at 5 µM in data set [2] of 93%. Take `O=C(O)/C=C/c1ccc(-c2ccc(OC(=O)N3CCC(N4CCCCC4)CC3)c(C34CC5CC(CC(C5)C3)C4)c2)cc1` [Example 11, [1,4′]bipiperidinyl-1′-carboxylic acid 3-adamantan-1-yl-4′-((E)-2-carboxy-vinyl)-biphenyl-4-yl ester hydrochloride]: the IC50 in data set [1] (setting [4]) was more than 20 µM.
